Measurements: PubChem BioAssay AID2060621 (Molecular Pharmacology Branch, DTP, NCI, 2025)
“And” between values parts separate entries of the source, which are not always exact repeats. Identical values can stand only once. Blank lines part the entries; values can stand above or below the compound they belong to.

System: 324938-238-R-J1-PDC complex spheroids viability
Experiment: Anticancer human tumor 324938-238-R-J1-PDC patient-derived bladder carcinoma cell line growth inhibition [CLK]
Conditions: for viability, T/C: stronger effect = lower value
In short: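 Patient-derived tumor cells grown as complex spheroids with HUVEC endothelial cells and mesenchymal stem cells, treated with drug combinations. Concentrations descend in half-log steps from near clinical Cmax, or from 10 microM if Cmax unknown.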

[1] = curve of first compound, second compound 0.0316 µM
[2] = curve of first compound, second compound 0.1 µM
[3] = curve of first compound, second compound 0.316 µM
[4] = curve of first compound, second compound 1 µM
[5] = curve of first compound, second compound 3.16 µM
[6] = curve of first compound, second compound 10 µM
[7] = second compound 0.0316 µM, first compound 0.0316 µM
[8] = second compound 0.0316 µM, first compound 0.1 µM
[9] = second compound 0.0316 µM, first compound 0.316 µM
[10] = second compound 0.0316 µM, first compound 1 µM
[11] = second compound 0.0316 µM, first compound 3.16 µM
[12] = second compound 0.0316 µM, first compound 10 µM
[13] = second compound 0.1 µM, first compound 0.0316 µM
[14] = second compound 0.1 µM, first compound 0.1 µM
[15] = second compound 0.1 µM, first compound 0.316 µM
[16] = second compound 0.1 µM, first compound 1 µM
[17] = second compound 0.1 µM, first compound 3.16 µM
[18] = second compound 0.1 µM, first compound 10 µM
[19] = second compound 0.316 µM, first compound 0.0316 µM
[20] = second compound 0.316 µM, first compound 0.1 µM
[21] = second compound 0.316 µM, first compound 0.316 µM
[22] = second compound 0.316 µM, first compound 1 µM
[23] = second compound 0.316 µM, first compound 3.16 µM
[24] = second compound 0.316 µM, first compound 10 µM
[25] = second compound 1 µM, first compound 0.0316 µM
[26] = second compound 1 µM, first compound 0.1 µM
[27] = second compound 1 µM, first compound 0.316 µM
[28] = second compound 1 µM, first compound 1 µM
[29] = second compound 1 µM, first compound 3.16 µM
[30] = second compound 1 µM, first compound 10 µM
[31] = second compound 3.16 µM, first compound 0.0316 µM
[32] = second compound 3.16 µM, first compound 0.1 µM
[33] = second compound 3.16 µM, first compound 0.316 µM
[34] = second compound 3.16 µM, first compound 1 µM
[35] = second compound 3.16 µM, first compound 3.16 µM
[36] = second compound 3.16 µM, first compound 10 µM
[37] = second compound 10 µM, first compound 0.0316 µM
[38] = second compound 10 µM, first compound 0.1 µM
[39] = second compound 10 µM, first compound 0.316 µM
[40] = second compound 10 µM, first compound 1 µM
[41] = second compound 10 µM, first compound 3.16 µM
[42] = second compound 10 µM, first compound 10 µM
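Further: viability read after seven days of drug exposure.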
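Wherever viability, T/C is given: 100% = DMSO vehicle control wells.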

- IC50 (curve of compound): 2260 nM and 3580 nM
Compound: C=C(F)C(=O)N1CCN(c2nc(OCC3CCCN3C)nc3c2CCN(c2cccc4cccc(Cl)c24)C3)CC1CC#N (configuration not stated)
- viability, T/C (compound 0.0316 µM): 79.2% and 88%
- viability, T/C (compound 0.1 µM): 88.8% and 85.7%
- viability, T/C (compound 0.316 µM): 89.3% and 88%
- viability, T/C (compound 1 µM): 85.3% and 92.6%
- viability, T/C (compound 3.16 µM): 35.5% and 55.8%
- viability, T/C (compound 10 µM): 0.27% and 1.96%

- IC50 [1]: 2360 nM
- IC50 [2]: < 31.6 nM
- IC50 [3]: < 31.6 nM
- IC50 [4]: < 31.6 nM
- IC50 [5]: < 31.6 nM
- IC50 [6]: < 31.6 nM
Compound: C=C(F)C(=O)N1CCN(c2nc(OCC3CCCN3C)nc3c2CCN(c2cccc4cccc(Cl)c24)C3)CC1CC#N (configuration not stated) + CNC(=O)c1ccc(Nc2nc(OC3CCCC3)c3c(-c4ccc5nc(C)oc5c4)c[nH]c3n2)c(OC)c1
- viability, T/C [7]: 89%
- viability, T/C [8]: 82.6%
- viability, T/C [9]: 83.2%
- viability, T/C [10]: 75.7%
- viability, T/C [11]: 41.3%
- viability, T/C [12]: 0.18%
- viability, T/C [13]: 23.1%
- viability, T/C [14]: 24.9%
- viability, T/C [15]: 25.2%
- viability, T/C [16]: 23.1%
- viability, T/C [17]: 24.9%
- viability, T/C [18]: 0.17%
- viability, T/C [19]: 16.2%
- viability, T/C [20]: 16.2%
- viability, T/C [21]: 17.7%
- viability, T/C [22]: 20.2%
- viability, T/C [23]: 16.7%
- viability, T/C [24]: 0.14%
- viability, T/C [25]: 18%
- viability, T/C [26]: 17%
- viability, T/C [27]: 15.3%
- viability, T/C [28]: 17.6%
- viability, T/C [29]: 16.4%
- viability, T/C [30]: 0.16%
- viability, T/C [31]: 17.5%
- viability, T/C [32]: 15.3%
- viability, T/C [33]: 14.6%
- viability, T/C [34]: 16.4%
- viability, T/C [35]: 14.5%
- viability, T/C [36]: 0.17%
- viability, T/C [37]: 16.7%
- viability, T/C [38]: 16.8%
- viability, T/C [39]: 15.5%
- viability, T/C [40]: 18.6%
- viability, T/C [41]: 14.3%
- viability, T/C [42]: 0.3%

Compound: CC(Nc1ccc2c(c1)OCCn1cc(N3C(=O)OCC3C(F)F)nc1-2)C(N)=O (configuration not stated) + CN1CCN(c2cc(C(=O)Nc3cc4cc(-c5cnn(C)c5)ccc4cn3)ccn2)CC1
- IC50 [1]: 167 nM
- IC50 [2]: < 31.6 nM
- IC50 [3]: < 31.6 nM
- IC50 [4]: < 31.6 nM
- IC50 [5]: < 31.6 nM
- IC50 [6]: < 31.6 nM
- viability, T/C [7]: 65.8%
- viability, T/C [8]: 58.5%
- viability, T/C [9]: 40%
- viability, T/C [10]: 29.9%
- viability, T/C [11]: 24.4%
- viability, T/C [12]: 15.8%
- viability, T/C [13]: 48.2%
- viability, T/C [14]: 40%
- viability, T/C [15]: 29.6%
- viability, T/C [16]: 26.5%
- viability, T/C [17]: 23.3%
- viability, T/C [18]: 15.5%
- viability, T/C [19]: 21.3%
- viability, T/C [20]: 20.8%
- viability, T/C [21]: 15.2%
- viability, T/C [22]: 14.1%
- viability, T/C [23]: 11.8%
- viability, T/C [24]: 9.85%
- viability, T/C [25]: 1.49%
- viability, T/C [26]: 2.08%
- viability, T/C [27]: 1.71%
- viability, T/C [28]: 0.86%
- viability, T/C [29]: 0.52%
- viability, T/C [30]: 0.51%
- viability, T/C [31]: 0.1%
- viability, T/C [32]: 0.15%
- viability, T/C [33]: 0.14%
- viability, T/C [34]: 0.1%
- viability, T/C [35]: 0.16%
- viability, T/C [36]: 0.18%
- viability, T/C [37]: 0.07%
- viability, T/C [38]: 0.14%
- viability, T/C [39]: 0.19%
- viability, T/C [40]: 0.12%
- viability, T/C [41]: 0.17%
- viability, T/C [42]: 0.2%

- IC50 [1]: 1390 nM
- IC50 [2]: < 31.6 nM
- IC50 [3]: < 31.6 nM
- IC50 [4]: < 31.6 nM
- IC50 [5]: < 31.6 nM
- IC50 [6]: < 31.6 nM
Compound: CC1COCCN1c1cc(C2(S(C)(=N)=O)CC2)nc(-c2ccnc3[nH]ccc23)n1 (configuration not stated) + CNC(=O)c1ccc(Nc2nc(OC3CCCC3)c3c(-c4ccc5nc(C)oc5c4)c[nH]c3n2)c(OC)c1
- viability, T/C [7]: 90.4%
- viability, T/C [8]: 89.2%
- viability, T/C [9]: 71%
- viability, T/C [10]: 60.7%
- viability, T/C [11]: 31.1%
- viability, T/C [12]: 15.5%
- viability, T/C [13]: 30.8%
- viability, T/C [14]: 29.2%
- viability, T/C [15]: 26.2%
- viability, T/C [16]: 27.4%
- viability, T/C [17]: 24.1%
- viability, T/C [18]: 17.1%
- viability, T/C [19]: 18.6%
- viability, T/C [20]: 19.4%
- viability, T/C [21]: 17.2%
- viability, T/C [22]: 17.4%
- viability, T/C [23]: 12.9%
- viability, T/C [24]: 10.9%
- viability, T/C [25]: 14.7%
- viability, T/C [26]: 15.8%
- viability, T/C [27]: 16%
- viability, T/C [28]: 12.6%
- viability, T/C [29]: 13.9%
- viability, T/C [30]: 7.97%
- viability, T/C [31]: 16.2%
- viability, T/C [32]: 15.1%
- viability, T/C [33]: 16.9%
- viability, T/C [34]: 15.6%
- viability, T/C [35]: 13.1%
- viability, T/C [36]: 7.09%
- viability, T/C [37]: 16.6%
- viability, T/C [38]: 15.1%
- viability, T/C [39]: 16.7%
- viability, T/C [40]: 15.2%
- viability, T/C [41]: 14.5%
- viability, T/C [42]: 8.22%

- IC50 [1]: 4260 nM
- IC50 [2]: < 31.6 nM
- IC50 [3]: < 31.6 nM
- IC50 [4]: < 31.6 nM
- IC50 [5]: < 31.6 nM
- IC50 [6]: < 31.6 nM
Compound: O=C(c1cc(Cc2n[nH]c(=O)c3ccccc23)ccc1F)N1CCN(C(=O)C2CC2)CC1 + CNC(=O)c1ccc(Nc2nc(OC3CCCC3)c3c(-c4ccc5nc(C)oc5c4)c[nH]c3n2)c(OC)c1
- viability, T/C [7]: 90.9%
- viability, T/C [8]: 78.5%
- viability, T/C [9]: 83.2%
- viability, T/C [10]: 77.7%
- viability, T/C [11]: 56.9%
- viability, T/C [12]: 29.4%
- viability, T/C [13]: 31.1%
- viability, T/C [14]: 27.2%
- viability, T/C [15]: 24.9%
- viability, T/C [16]: 28%
- viability, T/C [17]: 30.4%
- viability, T/C [18]: 20.8%
- viability, T/C [19]: 18.6%
- viability, T/C [20]: 20.8%
- viability, T/C [21]: 16.2%
- viability, T/C [22]: 21.2%
- viability, T/C [23]: 19%
- viability, T/C [24]: 17.9%
- viability, T/C [25]: 15.9%
- viability, T/C [26]: 15.2%
- viability, T/C [27]: 16.8%
- viability, T/C [28]: 15.3%
- viability, T/C [29]: 17.7%
- viability, T/C [30]: 15.8%
- viability, T/C [31]: 16.9%
- viability, T/C [32]: 17.1%
- viability, T/C [33]: 19.4%
- viability, T/C [34]: 17.3%
- viability, T/C [35]: 15.5%
- viability, T/C [36]: 17.7%
- viability, T/C [37]: 16.2%
- viability, T/C [38]: 14.3%
- viability, T/C [39]: 15.3%
- viability, T/C [40]: 18.2%
- viability, T/C [41]: 16.1%
- viability, T/C [42]: 17.4%

Compound: CC(=O)O[C@H]1C(=O)[C@@]2(C)[C@H]([C@H](OC(=O)c3ccccc3)[C@]3(O)C[C@H](OC(=O)[C@H](O)[C@@H](NC(=O)c4ccccc4)c4ccccc4)C(C)=C1C3(C)C)[C@]1(OC(C)=O)CO[C@@H]1C[C@@H]2O + CN1CCN(c2cc(C(=O)Nc3cc4cc(-c5cnn(C)c5)ccc4cn3)ccn2)CC1
- IC50 [1]: < 31.6 nM
- IC50 [2]: < 31.6 nM
- IC50 [3]: < 31.6 nM
- IC50 [4]: < 31.6 nM
- IC50 [5]: < 31.6 nM
- IC50 [6]: < 31.6 nM
- viability, T/C [7]: 14.2%
- viability, T/C [8]: 13.8%
- viability, T/C [9]: 14.7%
- viability, T/C [10]: 12.9%
- viability, T/C [11]: 14.6%
- viability, T/C [12]: 15.7%
- viability, T/C [13]: 13.7%
- viability, T/C [14]: 14%
- viability, T/C [15]: 13.6%
- viability, T/C [16]: 13.8%
- viability, T/C [17]: 14.5%
- viability, T/C [18]: 16.9%
- viability, T/C [19]: 16.9%
- viability, T/C [20]: 15.6%
- viability, T/C [21]: 15.2%
- viability, T/C [22]: 16.9%
- viability, T/C [23]: 15%
- viability, T/C [24]: 18%
- viability, T/C [25]: 0.92%
- viability, T/C [26]: 0.96%
- viability, T/C [27]: 0.69%
- viability, T/C [28]: 1.04%
- viability, T/C [29]: 0.73%
- viability, T/C [30]: 0.69%
- viability, T/C [31]: 0.17%
- viability, T/C [32]: 0.22%
- viability, T/C [33]: 0.22%
- viability, T/C [34]: 0.13%
- viability, T/C [35]: 0.21%
- viability, T/C [36]: 0.18%
- viability, T/C [37]: 0.13%
- viability, T/C [38]: 0.16%
- viability, T/C [39]: 0.51%
- viability, T/C [40]: 0.16%
- viability, T/C [41]: 0.28%
- viability, T/C [42]: 0.28%
